# Test results from patent publication US20250313535A1, “ALPHA 4 BETA 7 INTEGRIN MODULATORS AND USES THEREOF” (DICE MOLECULES SV, INC., priority 2022, published 2025).
# Columns and labels:
# α4β7 integrin [1] = target: T1, α4β7 integrin (Homo sapiens (Human), UniProt P13612+P26010); experiment: Integrin Adhesion Assay: Protocol 1 (MAdCAM-coated plate, RPMI-8866 cells, CellTiter GLO readout); format: cell-based
# Procedure, shortened: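 RPMI-8866 cells (2×10^6 per mL) added with compounds (1% DMSO) to MAdCAM-coated wells blocked in HEPES/NaCl buffer with 1 mM MnCl2, 0.1 mM CaCl2, 1% BSA; 1 h at 37° C, 5% CO2. After four washes, bound cells read by CellTiter GLO luminescence; % inhibition vs DMSO and control wells, 4-parameter fit.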
# α4β7 integrin [2] = target: T1, α4β7 integrin; experiment: Integrin Adhesion Assay: Protocol 4 (MAdCAM-coated plate, RPMI-8866 cells with stable LOF mutation of the ITGB1 gene); format: cell-based; settings: RPMI-8866 cells with stable LOF mutation of the ITGB1 gene; read-out: Mean IC50 α4β7 KO^a
# Procedure, shortened: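 RPMI-8866 cells with CRISPR/Cas9 knockout of ITGB1 (2×10^6/mL) were added to MAdCAM-coated wells with compound (1% DMSO) in HEPES/NaCl buffer with 1 mM MnCl2, 0.1 mM CaCl2 and 1% BSA, then incubated 1 h at 37 °C. After four washes, adherent cells were quantified by CellTiter-Glo luminescence. Percent inhibition versus DMSO and control compound was fitted to 4-parameter curves.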
# T1 sequence (P13612 34-1032): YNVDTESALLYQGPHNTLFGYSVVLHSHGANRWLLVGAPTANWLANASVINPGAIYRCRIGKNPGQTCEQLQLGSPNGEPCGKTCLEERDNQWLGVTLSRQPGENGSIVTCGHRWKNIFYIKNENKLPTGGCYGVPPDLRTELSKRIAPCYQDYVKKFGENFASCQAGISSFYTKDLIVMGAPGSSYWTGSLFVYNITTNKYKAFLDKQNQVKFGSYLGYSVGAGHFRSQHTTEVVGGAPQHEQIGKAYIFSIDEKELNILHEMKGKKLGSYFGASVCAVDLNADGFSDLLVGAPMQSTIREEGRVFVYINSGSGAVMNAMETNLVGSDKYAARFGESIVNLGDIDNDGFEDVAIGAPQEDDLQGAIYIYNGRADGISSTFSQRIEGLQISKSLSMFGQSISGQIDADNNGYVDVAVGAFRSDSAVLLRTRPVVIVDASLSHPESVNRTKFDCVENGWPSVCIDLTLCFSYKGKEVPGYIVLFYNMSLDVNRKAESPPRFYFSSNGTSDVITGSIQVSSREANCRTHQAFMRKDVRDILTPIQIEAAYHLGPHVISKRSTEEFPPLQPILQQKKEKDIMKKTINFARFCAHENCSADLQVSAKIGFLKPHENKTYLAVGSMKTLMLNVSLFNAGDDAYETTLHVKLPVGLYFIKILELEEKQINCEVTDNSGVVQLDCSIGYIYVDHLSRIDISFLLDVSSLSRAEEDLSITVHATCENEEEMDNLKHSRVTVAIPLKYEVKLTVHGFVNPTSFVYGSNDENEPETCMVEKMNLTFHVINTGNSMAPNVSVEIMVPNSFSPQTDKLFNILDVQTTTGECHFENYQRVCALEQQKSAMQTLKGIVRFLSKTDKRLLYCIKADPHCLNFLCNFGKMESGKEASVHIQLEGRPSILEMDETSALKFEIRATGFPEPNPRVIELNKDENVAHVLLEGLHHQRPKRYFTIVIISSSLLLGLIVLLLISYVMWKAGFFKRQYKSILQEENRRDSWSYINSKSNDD
# T1 sequence (P26010 20-798): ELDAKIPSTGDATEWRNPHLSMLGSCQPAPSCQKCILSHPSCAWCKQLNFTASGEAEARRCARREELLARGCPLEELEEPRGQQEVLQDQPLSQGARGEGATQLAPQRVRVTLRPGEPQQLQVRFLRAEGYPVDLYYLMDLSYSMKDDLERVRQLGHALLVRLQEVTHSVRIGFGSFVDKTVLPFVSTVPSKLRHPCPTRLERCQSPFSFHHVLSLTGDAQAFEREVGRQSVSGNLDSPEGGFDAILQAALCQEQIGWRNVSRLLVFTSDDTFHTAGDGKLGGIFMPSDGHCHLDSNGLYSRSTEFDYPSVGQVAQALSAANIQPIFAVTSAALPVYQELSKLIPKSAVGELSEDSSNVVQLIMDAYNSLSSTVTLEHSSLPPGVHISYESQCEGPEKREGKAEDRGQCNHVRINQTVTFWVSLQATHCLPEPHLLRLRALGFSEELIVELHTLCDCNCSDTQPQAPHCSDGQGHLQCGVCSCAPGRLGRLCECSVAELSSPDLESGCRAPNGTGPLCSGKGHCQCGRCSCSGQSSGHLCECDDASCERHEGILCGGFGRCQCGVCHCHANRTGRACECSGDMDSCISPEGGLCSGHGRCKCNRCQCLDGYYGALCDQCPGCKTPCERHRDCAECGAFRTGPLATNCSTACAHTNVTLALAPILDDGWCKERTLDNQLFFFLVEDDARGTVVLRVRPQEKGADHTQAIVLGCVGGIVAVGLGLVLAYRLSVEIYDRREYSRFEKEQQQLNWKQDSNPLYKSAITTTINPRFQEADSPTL
SMILES,IC50 (α4β7 integrin [1]) [nM],IC50 (α4β7 integrin [2]) [nM]
Cn1c(=O)c(-c2cccc3c(C[C@H](NC(=O)c4c(F)cc(CCN5CC(F)C5)cc4F)C(=O)O)cccc23)c(C(F)(F)F)c2ccccc21 [Compound 371],100 to 1000,100 to 1000
CN1CCC(c2cc(F)c(C(=O)N[C@@H](Cc3cccc4c(-c5c(C(F)(F)F)c6ccccc6n(C)c5=O)cccc34)C(=O)O)c(F)c2)C1 (stereo partly drawn) [Compound 372],100 to 1000,100 to 1000
Cn1c(=O)c(-c2cccc3c(C[C@H](NC(=O)c4c(F)cc(C5CCCOC5)cc4F)C(=O)O)cccc23)c(C(F)(F)F)c2ccccc21 (stereo partly drawn) [Compound 374],100 to 1000,100 to 1000
Cn1c(=O)c(-c2cccc3c(C[C@H](NC(=O)c4c(F)ccc(C5CCC(F)(F)CC5)c4F)C(=O)O)cccc23)c(C(F)(F)F)c2ccccc21 [Compound 382],100 to 1000,100 to 1000
Cn1c(=O)c(-c2cccc3c(C[C@H](NC(=O)c4c(F)cc(NC5(C(F)F)CC5)cc4F)C(=O)O)cccc23)c(C(F)(F)F)c2ccccc21 [Compound 387],100 to 1000,100 to 1000
Cn1c(=O)c(-c2cccc3c(C[C@H](NC(=O)c4c(F)cc(N5CC(C(F)(F)F)C5)cc4F)C(=O)O)cccc23)c(C(F)(F)F)c2ccccc21 [Compound 388],100 to 1000,100 to 1000
Cn1c(=O)c(-c2cccc3c(C[C@H](NC(=O)c4c(F)cc(N5CC6C(C5)C6(F)F)cc4F)C(=O)O)cccc23)c(C(F)(F)F)c2ccccc21 (stereo partly drawn) [Compound 389],100 to 1000,100 to 1000
Cn1c(=O)c(-c2cccc3c(C[C@H](NC(=O)C45CC(C(F)F)(C4)C5)C(=O)O)cccc23)c(C(F)(F)F)c2ccccc21 [Compound 390],100 to 1000,100 to 1000
Cn1c(=O)c(-c2cccc3c(C[C@H](NC(=O)[C@]4(C)CC[C@@H](N5CC(F)(F)C5)CC4)C(=O)O)cccc23)c(C(F)(F)F)c2ccccc21 [Compound 399],100 to 1000,10 to 100

# Second part, the compound after the results:
IC50 (α4β7 integrin [1]) [nM],IC50 (α4β7 integrin [2]) [nM],SMILES
100 to 1000,100 to 1000,Cn1c(=O)c(-c2cccc3c(C[C@H](NC(=O)[C@]4(C)CC[C@H](N5CC(F)(F)C5)CC4)C(=O)O)cccc23)c(C(F)(F)F)c2ccccc21 [Compound 400]
100 to 1000,100 to 1000,Cn1c(=O)c(-c2cccc3c(C[C@H](NC(=O)[C@]4(C)CC[C@@H](N5CCS(=O)(=O)CC5)CC4)C(=O)O)cccc23)c(C(F)(F)F)c2ccccc21 [Compound 404]
100 to 1000,100 to 1000,CN(C)c1ccc2c(c1)c(C(F)(F)F)c(-c1cccc3c(C[C@H](NC(=O)[C@]4(C)CC[C@@H](N5CCOC[C@@H]5C(F)(F)F)CC4)C(=O)O)cccc13)c(=O)n2C [Compound 409]
100 to 1000,100 to 1000,Cn1c(=O)c(-c2cccc3c(C[C@H](NC(=O)c4c(F)cc([C@H]5C[C@@H](N(C)C)C5)cc4F)C(=O)O)cccc23)c(C(F)(F)F)c2ccccc21 [Compound 416]
100 to 1000,100 to 1000,Cn1c(=O)c(-c2cccc3c(C[C@H](NC(=O)[C@]4(C(F)(F)F)CC[C@H](N5CCOC[C@@H]5C(F)(F)F)CC4)C(=O)O)cccc23)c(C(F)(F)F)c2ccccc21 [Compound 423]
100 to 1000,100 to 1000,CN(C)Cc1cccc2c(-c3cccc4c(C[C@H](NC(=O)[C@]5(C)CC[C@H](N6CCC(F)(F)CC6)CC5)C(=O)O)cccc34)nccc12 [Compound 425]
100 to 1000,100 to 1000,Cn1c(=O)c(-c2cccc3c(C[C@H](NC(=O)c4c(F)cc(N5CC6(COC6)C5)cc4F)C(=O)O)cccc23)c(C(F)(F)F)c2ccccc21 [Compound 426]
100 to 1000,10 to 100,Cn1ccc(C(F)(F)F)c(-c2cccc3c(C[C@H](NC(=O)c4c(F)cc(N5CCOC[C@H]5c5ccccc5)cc4F)C(=O)O)cccc23)c1=O [Compound 438]
100 to 1000,100 to 1000,Cn1ccc(C(F)(F)F)c(-c2cccc3c(C[C@H](NC(=O)c4c(F)cc(N5CCOCC5c5ccc(C(F)(F)F)cc5)cc4F)C(=O)O)cccc23)c1=O (stereo partly drawn) [Compound 442]
